# Tests used:
# [1] = test system: hypoxemia state rats; test: Effect on partial pressure value of gases in arterial blood, oral administration system, Method A (acetic acid induced hypoxemia, about 60 min); type: in vivo, rat (Male Wistar strain); conditions: 60 min. after administration
# Method: Effect on Partial Pressure Value of Gases in Arterial Blood (Oral Administration System) Method A Male Wistar strain rats (body weight about 250 g) fasted overnight were anesthetized with halothane inhalant, and a cannula then inserted into the femoral artery. After the animals recovered from the anesthesia, they were again anesthetized with halothane inhalant, and then 2.0% acetic acid was […] injected at 0.8 ml/kg to induce a hypoxemia state. After the hypoxemic state (PaO2 :60-80 mmHg) was observed over about 60 min., a compound in accordance with the present invention (test substance, 10 or 30 mg/kg) was orally administered to the animals. Then 60 min. after the administration, the partial pressure value of gases (PaO2, PaCO2) in arterial blood was determined.
# [2] = test system: hypoxemia model animals; test: Effect on partial pressure value of gases in arterial blood, injection system, Method B (acetic acid induced respiratory insufficiency); type: in vivo, rat (Male Wister strain); conditions: continuous i.v. 0.1 mg/kg/min., 10 min.; for Activity for Decreasing PaCO2: increment PaCO2: PaCO2 after minus before administration; for Activity for Increasing PaO2: increment PaO2: PaO2 after minus before administration
# Method: Effect on Partial Pressure Value of Gases in Arterial Blood (Injection system) <Method B> Male Wister strain rats (body about 300 g) were anesthetized with halothane inhalant, and then 2.0% acetic acid was […] injected at 0.6 ml/kg to induce a respiratory insufficiency. The animals were intra-peritoneally anesthetized with urethane-α-chloralose, and a cannula was inserted into the femoral artery. After the hypoxemic state (PaO2 : 60-70 mmHg) was observed a compound in accordance with the present invention (test substance) was continuously intravenously injected into these hypoxemia model animals (0.1 mg/kg/min., 10 min.), and then a partial pressure value of gases (PaO2, PaCO2) in arterial blood was immediately determined.
# [3] = test system: hypoxemia model animals; test: Effect on partial pressure value of gases in arterial blood, injection system, Method A (carbon powder induced hypoxemia); type: in vivo, rat (Male Wister strain); conditions: continuous i.v. 0.1 mg/kg/min., 10 min.; for Activity for Decreasing PaCO2: increment PaCO2: PaCO2 after minus before administration; for Activity for Increasing PaO2: increment PaO2: PaO2 after minus before administration
# Method: Effect on Partial Pressure Value of Gases in Arterial Blood (Injection system)
# Male Wister strain rats (body weight about 300 g) were anesthetized intra-peritoneally with urethane, and a cannula was inserted into the respiratory tract and the femoral artery, respectively. A suspension (30-100 μm, 10 mg/ml) of carbon powder in a corn oil was intratrachealy injected to induce a hypoxemia state (PaO2; 50-60 mmHg). A compound in accordance with the present invention was continuously intravenously injected into these hypoxemia model animals (0.1 mg/kg/min., 10 min.), and then a partial pressure value of gases (PaO2, PaCO2) in arterial blood was immediately determined.
# [4] = test system: hypoxemia animals; test: Effect on partial pressure value of gases in arterial blood, oral administration system, Method B (3 days after acetic acid); type: in vivo, rat (Male wistar strain); conditions: 60 min. after administration
# Method: Effect on Partial Pressure Value of Gases in Arterial Blood (Oral Administration System)
# Male wistar strain rats (body weight about 350 g) were anesthetized with halothane inhalant, and then 2.0% acetic acid were intratrachealy injected at 0.6 ml/kg body to induce a hypoxemia state. In 3 days after injection with 2.0% acetic acid, rats fasted overnight were anesthetized with halothane inhalant, and a cannula inserted into the femoral artery. After these hypoxemia animals (PaO2 : 60-80 mmHg) were recovered from the anesthesia, a compound in accordance with the present invention (test substance, 10 or 30 mg/kg) was orally administered to the animals. At 60 min. after the administration, the partial pressure value of gases (PaO2, PaCO2) in arterial blood was determined.
Structure (SMILES),Activity for Decreasing PaCO2: increment PaCO2 [2],Activity for Increasing PaO2: increment PaO2 [2],further results
"C=CCNc1nc(NC(C)c2ccccc2)c2ccn(C)c2n1.Cl (racemic) [Compound 156, (±)-2-allylamino-7-methyl-4-(1-phenylethylamino)-7H-pyrrolo[2,3-d]pyrimidine hydrochloride]",-9.1 mmHg,–,Activity for Decreasing PaCO2: increment PaCO2 ([1]; 30 mg/kg): -8.1 mmHg; Activity for Increasing PaO2: increment PaO2 ([1]; 30 mg/kg): +7.8 mmHg
C=CCNc1nc(N2CCC(OC(C)=O)CC2)c2ccn(C)c2n1 [Compound 119],–,–,Activity for Decreasing PaCO2: increment PaCO2 [3]: -2.6 mmHg; Activity for Increasing PaO2: increment PaO2 [3]: +7.1 mmHg
C=CCNc1nc(N2CCOCC2)c2ccn(C)c2n1 [Compound 124],-4.0 mmHg,+5.7 mmHg,Activity for Decreasing PaCO2: increment PaCO2 ([4]; 30 mg/kg): -2.5 mmHg; Activity for Increasing PaO2: increment PaO2 ([4]; 30 mg/kg): +8.0 mmHg
C=CCNc1nc(N2CCN(C(c3ccc(F)cc3)c3ccc(F)cc3)CC2)c2ccn(C)c2n1 [Compound 133],–,–,Activity for Decreasing PaCO2: increment PaCO2 [3]: -0.6 mmHg; Activity for Increasing PaO2: increment PaO2 [3]: +6.9 mmHg
C=CCNc1nc(N2CCN(C(c3ccc(F)cc3)c3ccc(F)cc3)CC2)c2ccn(CC=C)c2n1 [Compound 143],–,–,Activity for Decreasing PaCO2: increment PaCO2 [3]: +1.1 mmHg; Activity for Increasing PaO2: increment PaO2 [3]: +5.0 mmHg
C=CCNc1nc(N(C)C)c2ccn(C)c2n1 [Compound 165],+1.1 mmHg,+7.9 mmHg,Activity for Decreasing PaCO2: increment PaCO2 ([1]; 30 mg/kg): -3.4 mmHg; Activity for Increasing PaO2: increment PaO2 ([1]; 30 mg/kg): +8.5 mmHg
C=CCNc1nc(N(C)CCc2ccccc2)c2ccn(C)c2n1 [Compound 167],-6.6 mmHg,–,–
C=CCNc1nc(NCc2ccco2)c2ccn(C)c2n1 [Compound 172],-2.8 mmHg,+12.3 mmHg,–
C=CCNc1nc(NCCCc2ccco2)c2ccn(C)c2n1 [Compound 173],-13.1 mmHg,+12.0 mmHg,Activity for Decreasing PaCO2: increment PaCO2 ([1]; 10 mg/kg): -3.7 mmHg; Activity for Increasing PaO2: increment PaO2 ([1]; 10 mg/kg): +4.2 mmHg
C=CCNc1nc(NCc2cccs2)c2ccn(C)c2n1 [Compound 174],-2.9 mmHg,+5.8 mmHg,–
C=CCNc1nc(NCCc2ccc(OC)cc2)c2ccn(C)c2n1 [Compound 175],-13.1 mmHg,+15.2 mmHg,–
C=CCNc1nc(NC(C)C)c2ccn(C)c2n1 [Compound 176],-14.8 mmHg,+22.2 mmHg,Activity for Decreasing PaCO2: increment PaCO2 ([4]; 10 mg/kg): -5.4 mmHg; Activity for Increasing PaO2: increment PaO2 ([4]; 10 mg/kg): +11.6 mmHg
C=CCNc1nc(NC(C)(C)C)c2ccn(C)c2n1 [Compound 178],-16.4 mmHg,+16.4 mmHg,Activity for Decreasing PaCO2: increment PaCO2 ([4]; 10 mg/kg): -6.6 mmHg; Activity for Increasing PaO2: increment PaO2 ([4]; 10 mg/kg): +17.0 mmHg
C=CCNc1nc(NCC2CCCO2)c2ccn(C)c2n1 (stereo not drawn) [Compound 179],+2.4 mmHg,+8.5 mmHg,–
C=CCNc1nc(N2CCC(OC)CC2)c2ccn(C)c2n1 [Compound 180],-0.5 mmHg,+6.5 mmHg,–
C=CCNc1nc(N(CCOCC)CCOCC)c2ccn(C)c2n1 [Compound 181],+1.2 mmHg,+6.4 mmHg,–
C=CCNc1nc(N2CCCCC2C)c2ccn(C)c2n1 (stereo not drawn) [Compound 182],–,–,Activity for Decreasing PaCO2: increment PaCO2 ([4]; 30 mg/kg): -2.2 mmHg; Activity for Increasing PaO2: increment PaO2 ([4]; 30 mg/kg): +3.3 mmHg
C=CCNc1nc(N2C(C)CCCC2C)c2ccn(C)c2n1 (stereo not drawn) [Compound 183],-4.6 mmHg,+10.7 mmHg,–
C=CCNc1nc(NC(COC)COC)c2ccn(C)c2n1 [Compound 184],-0.7 mmHg,+7.8 mmHg,–
C=CCNc1nc(N[C@H]2CC[C@@H](OC)CC2)c2ccn(C)c2n1 [Compound 185],-6.0 mmHg,+11.7 mmHg,–
C=CCNc1nc(N[C@H]2CC[C@H](OC)CC2)c2ccn(C)c2n1 [Compound 186],-15.4 mmHg,+12.3 mmHg,Activity for Decreasing PaCO2: increment PaCO2 ([4]; 10 mg/kg): -5.3 mmHg; Activity for Increasing PaO2: increment PaO2 ([4]; 10 mg/kg): +14.9 mmHg
C=CCNc1nc(N[C@H]2CC[C@H](OCCOCC)CC2)c2ccn(C)c2n1 [Compound 187],-14.7 mmHg,+13.7 mmHg,Activity for Decreasing PaCO2: increment PaCO2 ([4]; 10 mg/kg): +6.9 mmHg; Activity for Increasing PaO2: increment PaO2 ([4]; 10 mg/kg): +16.0 mmHg
C=CCNc1nc(N(C)[C@H]2CC[C@H](OC)CC2)c2ccn(C)c2n1 [Compound 189],-6.0 mmHg,+7.3 mmHg,–

# — patent US5661148A, “Pyrrolo[2,3-d]pyrimidine derivatives, process for producing the same and pharmaceutical preparation comprising the same as active ingredient” (Teijin Limited, priority 1989, dated 1997)
